Assay results as given in US7888285B2, “2,4,6-phenyl substituted cyclic ketoenols” (Bayer CropScience AG, priority 2003, dated 2011).

Assays:
Assay type in all cases: in vivo
Spring barley = assay: Post-emergence crop plant tolerance, greenhouse experiments with safener pretreatment (mefenpyr)
Procedure: (§1) Post-Emergence Crop Plant Tolerance
(§2) Seeds of monocotyledonous and dicotyledonous weed and crop plants are placed in sandy loam in wood fibre pots or in plastic pots, covered with soil and grown in the greenhouse or, during the vegetation period, in the open outside the greenhouse, under good growth conditions. 2 to 3 weeks after sowing, the test plants are treated in the one- to three-leaf stage. The test compounds, which are formulated as wettable powder (WP) or as a fluid (EC), are sprayed onto the plants and the soil surface at various dosage rates with a water application rate of 300 l/ha (converted), with added wetter (0.2 to 0.3%). 3 to 4 weeks after the treatment of the test plants, the effect of the preparations is scored visually in comparison with untreated controls (herbicidal activity in per cent (%): 100% activity=plants have died, 0% activity=like control plants).
(§3) If it is additionally desired to test whether safeners are capable of improving the plant tolerance of test substances with regard to the crop plants, the following options for applying the safeners are used: • Prior to application of the test substances, the crop plants are sprayed with safener at a particular application rate per hectare (usually 1 day prior to application of the test substances). • The safener is applied together with the test substance in the form of a tank mix (the amount of safener being indicated in g/ha or as a safener:herbicide ratio).
(§4) The activity of the safener substance can be assessed in comparison with untreated control plants by comparing the effect of test substances on crop plants which have been treated without and with safener.
(§5) Results of Greenhouse Experiments With Safener/Pretreatment (Safener Mefenpyr (100 g a.i./ha), One Day Prior to Post-Emergence Treatment With the Herbicide)

cereals [1] = assay: Container experiments with cereals outside the greenhouse, herbicide:mefenpyr 1:2 tank mix; settings: no safener
Procedure: as §2, §3, §4
Container Experiments with Cereals Outside the Greenhouse Herbicide: mefenpyr 1:2 tank mix

Spring wheat = assay: Post-emergence crop plant tolerance, greenhouse experiments with safener pretreatment (mefenpyr)
Procedure: as §1, §2, §3, §4, §5

Alopecurus [2] = assay: Post-emergence test; settings: greenhouse, 250 g a.i./ha, scored after three weeks
Procedure: (§6) To prepare a suitable active compound preparation, 1 part by weight of active compound is mixed with the stated amount of solvent, the stated amount of emulsifier is added, and the concentrate is diluted with water to the desired concentration.
(§7) Test plants with a height of 5-15 cm are sprayed with the active compound preparation in such a way that the amounts of active compound desired in each case are applied per unit area. The concentration of the spray mixture is chosen in such a way that the amounts of active compound desired in each case are applied in 1 000 1 of water/ha.
(§8) After three weeks, the degree of damage of the plants is scored in % damage in comparison with the development of the untreated control.
(§9) The figures denote: • 0% =no effect (like untreated control) • 100% =total destruction

Avena fatua [3] = assay: Post-emergence test; settings: greenhouse, 250 g a.i./ha, scored after three weeks
Procedure: as §6, §7, §8, §9

Echinochloa [4] = assay: Post-emergence test; settings: greenhouse, 250 g a.i./ha, scored after three weeks
Procedure: as §6, §7, §8, §9

Setaria [5] = assay: Post-emergence test; settings: greenhouse, 250 g a.i./ha, scored after three weeks
Procedure: as §6, §7, §8, §9

Sinapis = assay: Post-emergence test; settings: greenhouse, 250 g a.i./ha, scored after three weeks
Procedure: as §6, §7, §8, §9

Alopecurus [6] = assay: Pre-emergence test; settings: greenhouse, 250 g a.i./ha, scored after three weeks
Procedure: (§10) [table] To prepare a suitable active compound preparation, 1 part by weight of active compound is mixed with the stated amount of solvent, the stated amount of emulsifier is added, and the concentrate is diluted with water to the desired concentration. Seeds of the test plant are sown in normal soil. After approximately 24 hours, the soil is sprayed with the active compound preparation in such a way that the amounts of active compound desired in each case are applied per unit area. The concentration of the spray mixture is chosen in such a way that the amounts of active compound desired in each case are applied in 1 000 1 of water/ha. After three weeks, the degree of damage of the plants is scored in % damage in comparison with the development of the untreated control.

Avena fatua [7] = assay: Pre-emergence test; settings: greenhouse, 250 g a.i./ha, scored after three weeks
Procedure: as §10

Echinochloa [8] = assay: Pre-emergence test; settings: greenhouse, 250 g a.i./ha, scored after three weeks
Procedure: as §10

Setaria [9] = assay: Pre-emergence test; settings: greenhouse, 250 g a.i./ha, scored after three weeks
Procedure: as §10

cereals [10] = assay: Greenhouse experiment with cereals with 100 g a.i./ha mefenpyr, post-emergence, evaluation 21 days after application; settings: 50 g a.i./ha, no safener
Procedure: as §2, with “plants). […]” for “plants).”
(§11) The activity of the safener substance can be assessed in comparison with untreated control plants by comparing the effect of test substances on crop plants which have been treated without and with safener. […]

[11] = tested on: larvae of the mustard beetle (Phaedon cochleariae); assay: Phaedon larvae test; settings: 1000 ppm
Procedure: [table] To produce a suitable preparation of active compound, 1 part by weight of active compound is mixed with the stated amounts of solvent and emulsifier, and the concentrate is diluted with emulsifier-containing water to the desired concentration. Cabbage leaves (Brassica oleracea) are treated by being dipped into the preparation of active compound of the desired concentration and are infested with the larvae of the mustard beetle (Phaedon cochleariae) while the leaves are still moist.

cereals [12] = assay: Container experiments with cereals outside the greenhouse, herbicide + mefenpyr 50 g a.i./ha; settings: 100 g a.i./ha, no safener
Procedure: as §2, with “plants). […]” for “plants).”
as §11

[13] = 25 g a.i./ha herbicide, no safener
[14] = 50 g a.i./ha herbicide, no safener
[15] = 100 g a.i./ha herbicide, no safener
[16] = application rate 25 g a.i./ha, without safener
[17] = application rate 50 g a.i./ha, without safener
[18] = application rate 100 g a.i./ha, without safener

CCc1cc(Cl)cc(OC)c1C1=C(O)C2(CCC(OC)CC2)OC1=O (mixture of isomers) [Example I-2-a-2]
Spring barley observed (%) (Spring barley; [13]): 60%
Spring barley observed (%) (Spring barley; [14]): 60%
Spring barley observed (%) (Spring barley; [15]): 97%
Spring barley observed (%) (cereals [1]; 50 g a.i./ha): 20%
Spring wheat observed (%) (cereals [1]; 50 g a.i./ha): 95%

CCc1cc(Cl)cc(OC)c1C1=C(OC(=O)C(C)(C)CC)C2(CCC(OC)CC2)OC1=O (mixture of isomers) [Example I-2-b-4]
Spring barley observed (%) (Spring barley; [15]): 80%
Spring wheat observed (%) (Spring wheat; [13]): 100%

CCc1cc(Cl)cc(OC)c1C1=C(OC(=O)C(C)C)C2(CCC(OC)CC2)OC1=O (mixture of isomers) [Example I-2-b-5]
Spring barley observed (%) (Spring barley; [13]): 50%
Spring barley observed (%) (Spring barley; [14]): 97%
Spring barley observed (%) (Spring barley; [15]): 100%
Spring wheat observed (%) (Spring wheat; [13]): 99%

CCc1cc(Cl)cc(OC)c1C1=C(OC(=O)C(C)(C)C)C2(CCC(OC)CC2)OC1=O (mixture of isomers) [Example I-2-b-6]
Spring barley observed (%) (Spring barley; [13]): 50%
Spring barley observed (%) (Spring barley; [14]): 97%
Spring barley observed (%) (Spring barley; [15]): 98%
Spring barley observed (%) (cereals [1]; 50 g a.i./ha): 40%
Spring wheat observed (%) (cereals [1]; 50 g a.i./ha): 100%

CCOC(=O)OC1=C(c2c(CC)cc(Cl)cc2OC)C(=O)N(CC)C1C (racemic) [Example I-1-c-7]
Spring barley observed (%) (Spring barley; application rate 13 g a.i./ha, without safener): 15%
Spring barley observed (%) (Spring barley; [16]): 30%
Spring barley observed (%) (Spring barley; [17]): 85%

CCc1cc(Cl)cc(OC)c1C1=C(OC(=O)C(C)(C)C)C2(CCC(C)CC2)NC1=O (single isomer, unassigned) [Example I-1-b-4]
Spring barley observed (%) (cereals [1]; 50 g a.i./ha): 60%

CCc1cc(Cl)cc(OC)c1C1=C(O)C(C)(C)NC1=O [Example I-1-a-5]
degree of damage, Alopecurus (Alopecurus [2]): 100%
degree of damage, Avena fatua (Avena fatua [3]): 100%
degree of damage, Echinochloa (Echinochloa [4]): 100%
degree of damage, Setaria (Setaria [5]): 100%
degree of damage, Sinapis (Sinapis): 80%
degree of damage, Alopecurus (Alopecurus [6]): 90%
degree of damage, Avena fatua (Avena fatua [7]): 100%
degree of damage, Echinochloa (Echinochloa [8]): 100%
degree of damage, Setaria (Setaria [9]): 100%

CCc1cc(Cl)cc(OC)c1C1=C(O)C2(CCCCC2)NC1=O [Example I-1-a-6]
degree of damage, Alopecurus (Alopecurus [2]): 90%
degree of damage, Avena fatua (Avena fatua [3]): 100%
degree of damage, Echinochloa (Echinochloa [4]): 100%
degree of damage, Sinapis (Sinapis): 80%
Winter barley (%) (cereals [10]; winter barley): 20%
Winter wheat (%) (cereals [10]; winter wheat): 10%
Destruction in % after 7 d [11]: 90%

CCc1cc(Cl)cc(OC)c1C1=C(O)C2(CCCCC2)OC1=O [Example I-2-a-1]
Spring barley observed (%) (Spring barley; [16]): 10%
Spring barley observed (%) (Spring barley; [17]): 15%
Spring barley observed (%) (Spring barley; [18]): 20%
Spring wheat observed (%) (Spring wheat; [16]): 20%
Spring wheat observed (%) (Spring wheat; [17]): 20%
Spring wheat observed (%) (Spring wheat; [18]): 30%

CCc1cc(Cl)cc(OC)c1C1=C(OC(=O)C(C)(C)C)C2(CCCCC2)OC1=O [Example I-2-b-1]
Spring barley observed (%) (Spring barley; [14]): 10%
Spring barley observed (%) (Spring barley; [15]): 20%
Spring wheat observed (%) (Spring wheat; [13]): 20%
Spring wheat observed (%) (Spring wheat; [14]): 40%
Spring wheat observed (%) (Spring wheat; [15]): 60%
Spring barley observed (%) (cereals [1]; 100 g a.i./ha): 20%
Spring wheat observed (%) (cereals [1]; 100 g a.i./ha): 30%

CCOC(=O)OC1=C(c2c(CC)cc(Cl)cc2OC)C(=O)OC12CCCCC2 [Example I-2-c-1]
Spring wheat observed (%) (Spring wheat; [14]): 20%
Spring wheat observed (%) (Spring wheat; [15]): 30%
Spring barley observed (%) (cereals [1]; 100 g a.i./ha): 15%
Spring wheat observed (%) (cereals [1]; 100 g a.i./ha): 40%
Spring barley observed (%) (cereals [12]; spring barley): 50%
Spring wheat observed (%) (cereals [12]; spring wheat): 65%
